These results are taken from US10577399B2, “Modified lantibiotics and methods of making and using the modified lantibiotics” (priority 2016, dated 2020).

One series relates to trypsin. Nature of the series: Trypsin stability screen with M. luteus overlay. In kind it is in vitro ADME. Conditions: 0.5 mg/mL trypsin, 37° C., 30 minutes. An excerpt: Selective activity and stability of analogs: Several core peptide mutants are provided that have improved activity against our ATCC strain of S. pneumoniae. These core peptide mutants were also selected based on the absence of a dehydrated residue Dha/Dhb or the proteolytically susceptible arginine residue. […] Although the analog S5G had improved activity against S. pneumoniae ATCC 27336 compared to native mutacin and R13A, the S5G had less activity against all other tested strains of S. pneumoniae. […] 4) The R13A mutation prevents feedback inhibition of mutacin 1140 production, leading to a 100% increase in yield from the culture liquor. […] They are important for immunoregulation and blood coagulation. The observed increase in stability of the R13A analog will likely be advantageous in an animal model.

The nature of series [1]: Pharmacokinetics after intravenous dose in mice. In kind it is in vivo. The following applies: mouse, iv, 2.5 mg/kg i. v., BALB/c mice, polynomial second order estimate. As to the method: The compounds were dissolved in normal saline for all pharmacokinetic studies. An extraction protocol was developed in vitro by the addition of each compound to commercially bought BALB/c mouse serum. The compounds were extracted by the addition of 70% ACN containing 0.1% TFA/30% methanol containing 0.4% formic acid. The extract was then analyzed by LC-MS using a TSQ Vantage Triple Quad mass spectrometer. A standard curve was generated for each compound using known dilutions of the compounds in serum, which was then extracted. The R-squared values for each standard exceeded 0.98. BALB/c mice were used to evaluate pharmacokinetics of the compounds in vivo. A 2.5 mg/kg i. v. dose was evaluated for native mutacin, R13A, S5G, and double mutant S5A:T14G (FIG. 12A). A polynomial second order was used to estimate the peak plasma concentration and half-life of the R13A. […] Possibly, the Dhb14 residue may protect the peptide from trypsin-like proteases in the blood. […] Thus, taking the dynamics of cell death into account and the pharmacokinetics of the R13A, the R13A in serum is above the inhibitory concentration for S. pneumonia long enough to kill the pathogen.

Another series can be described thus: Solubility in saline. Type of series: physicochemical. Conditions: saline solution.
In another series the test system is M. luteus ATCC 10240. In kind it is cell-based, Micrococcus luteus. The following applies: Table 10; indicator strain Micrococcus luteus. The method, boiled down: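 Broth microdilution: antibiotic in 50% acetonitrile, 2-fold dilutions from 640 μg/mL stock down to 0.156 μg/mL, 10 μL per well plus 190 μL of ~10^5 CFU bacteria grown in THyex at 37 °C. MIC read as concentration preventing visible growth after 24 h.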

≈ marks a conversion by molar mass, not a printed value.

Consider `C=C1NC(=O)[C@H](Cc2c[nH]c3ccccc23)NC(=O)C(NC(=O)[C@H](CCCCN)NC(=O)[C@@H](N)Cc2ccccc2)CSC[C@@H](C(=O)NC2C(=O)N3CCC[C@H]3C(=O)NCC(=O)N[C@H](C(=O)N[C@@H](C)C(=O)N[C@@H](C)C(=O)NC(=CC)C(=O)NCC(=O)NC3CSC[C@@H]4NC(=O)[C@H](Cc5ccc(O)cc5)NC(=O)[C@@H](CS/C=C\NC4=O)NC(=O)[C@H](CC(N)=O)NC(=O)[C@H](Cc4ccccc4)NC3=O)CSC2C)NC(=O)[C@H](CC(C)C)NC1=O` (some centres unmarked) [Mutant R13A], for which the stability to trypsin result in the series with trypsin is “improved stability”. In addition, the half-life (as a rule, the time needed for the level to fall by half in the phase considered) in series [1] (in vivo, read-out: estimated half-life) was 1.17 h. In addition, the Cmax in series [1] (plasma, read-out: peak plasma concentration) was 1700 ng/mL. Moreover, the solubility – broadly, the concentration that dissolves in the medium under given conditions – in “Solubility in saline” was more than 2000 µg/mL. In the series on M. luteus ATCC 10240, the MIC (usually the lowest concentration found to suppress growth) is 0.0625 µg/mL (≈ 0.0287 µM).
